Source: ChEMBL document CHEMBL1201862, “PubChem BioAssay data set” (2004)
Calls of active or inactive are those of the source.

Columns and labels:
[1] = test system: Streptococcus sp. 'group A'; test: Streptococcus pyogenes SK(-)GAS viability under kanamycin – luminescence, BacTiterGlo, confirmation, counter-screen for streptokinase expression inhibitor project, dose response (AID 1900); format: functional, organism-based
Aminopeptidase N = target: T1, Aminopeptidase N (Plasmodium falciparum FcB1/Columbia, UniProt O96935); test: malaria alanyl aminopeptidase activity blockers – biochemical, fluorogenic H-Leu-NHMec substrate, 1536-well (AID 1445); parameters: species or system Plasmodium falciparum 3D7, 3D7
T1 sequence (O96935 whole entry): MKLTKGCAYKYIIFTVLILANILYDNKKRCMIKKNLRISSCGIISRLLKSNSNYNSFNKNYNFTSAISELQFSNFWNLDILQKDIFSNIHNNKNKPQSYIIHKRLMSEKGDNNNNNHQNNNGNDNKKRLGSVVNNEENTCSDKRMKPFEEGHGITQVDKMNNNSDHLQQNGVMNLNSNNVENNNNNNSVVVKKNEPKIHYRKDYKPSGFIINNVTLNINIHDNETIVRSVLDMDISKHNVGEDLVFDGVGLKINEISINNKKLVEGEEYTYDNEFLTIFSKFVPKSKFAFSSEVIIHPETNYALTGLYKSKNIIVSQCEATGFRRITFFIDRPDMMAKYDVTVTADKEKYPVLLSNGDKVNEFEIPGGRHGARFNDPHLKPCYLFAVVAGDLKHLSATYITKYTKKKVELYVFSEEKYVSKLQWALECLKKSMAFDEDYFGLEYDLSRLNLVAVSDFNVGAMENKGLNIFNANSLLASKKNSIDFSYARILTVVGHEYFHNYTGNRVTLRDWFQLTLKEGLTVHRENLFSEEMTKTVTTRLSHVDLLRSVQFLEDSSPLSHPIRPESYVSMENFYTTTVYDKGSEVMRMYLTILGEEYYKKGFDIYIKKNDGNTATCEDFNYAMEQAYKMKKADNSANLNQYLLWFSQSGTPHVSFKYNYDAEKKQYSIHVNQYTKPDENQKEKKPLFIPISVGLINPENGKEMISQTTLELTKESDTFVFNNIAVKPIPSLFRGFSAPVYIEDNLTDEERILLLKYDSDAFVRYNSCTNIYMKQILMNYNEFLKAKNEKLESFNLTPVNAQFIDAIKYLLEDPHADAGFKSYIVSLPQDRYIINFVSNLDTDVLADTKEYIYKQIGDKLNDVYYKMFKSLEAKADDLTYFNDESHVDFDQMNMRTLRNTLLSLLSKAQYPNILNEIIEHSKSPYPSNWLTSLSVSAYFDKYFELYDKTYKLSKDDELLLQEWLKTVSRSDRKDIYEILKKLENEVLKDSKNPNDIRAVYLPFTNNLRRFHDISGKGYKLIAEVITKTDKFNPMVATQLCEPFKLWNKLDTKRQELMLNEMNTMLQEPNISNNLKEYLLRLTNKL

Streptococcus = test: GAS UMAA2166 growth inhibition – luminescence, BacTiterGlo, counter-screen for streptokinase expression inhibitor project, dose response (AID 1915); format: functional, organism-based;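 also: potency for reduction of bacterial viability or growth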
[2] = loss of viability in HepG2 cells – cell-based, CellTiter-Glo, cherry-picked, cytotoxicity control for Shn3 inhibitor project, dose response (AID 624134); format: functional
[3] = non-specific 3'UTR reporter inhibition in Clone20-Shn3RL – cell-based, Renilla luciferase, cherry-picked, counter-screen for Shn3 inhibitor project, dose response (AID 624133); format: functional
[4] = reduction of Shn3 3'UTR-driven luciferase in osteoblasts – cell-based, Clone20 osteoblasts, firefly luciferase, cherry-picked, dose response (AID 624132); format: functional;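 also: firefly luciferase luminescence from reporter carrying the Shn3 3'UTR in osteoblasts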
[5] = HEK-293T cell viability reduction – luminescence, B-cell screen hits, cytotoxicity control for BCR NF-kB inhibitor project, dose response (AID 489021); format: functional, cell-based;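 also: HEK-293T cells carrying an NF-kB luciferase reporter; cells exposed to compound for about 14 hours before viability readout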
Protein Wnt-3a = Protein Wnt-3a (Mus musculus, UniProt P27467); test: antagonism of Wnt3a pathway luciferase reporter – Wnt-LIGHT cells, luminescence, selectivity assay for Gli-SUFU antagonist project, dose response (AID 651570); format: functional; conditions: read-out: IC50_Mean;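 also: Wnt-LIGHT reporter cells stimulated with conditioned medium from Wnt3a-producing cells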
[6] = target: Eukaryotic translation initiation factor 4E (Mus musculus, UniProt P63073); test: blockers of eIF4G binding by eIF4E – biochemical, TR-FRET, dose response (AID 855); format: functional;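 also: potency for disrupting eIF4E binding to eIF4GI seen as loss of FRET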
[7] = target: T2, Rac GTPase-activating protein 1 (Homo sapiens, UniProt Q9H0H5); test: blockers of MgcRacGAP-driven Rac1 GTP hydrolysis – biochemical, ADP Hunter fluorescence, primary and confirmatory, confirmation (AID 624330); format: functional
T2 sequence (Q9H0H5 whole entry): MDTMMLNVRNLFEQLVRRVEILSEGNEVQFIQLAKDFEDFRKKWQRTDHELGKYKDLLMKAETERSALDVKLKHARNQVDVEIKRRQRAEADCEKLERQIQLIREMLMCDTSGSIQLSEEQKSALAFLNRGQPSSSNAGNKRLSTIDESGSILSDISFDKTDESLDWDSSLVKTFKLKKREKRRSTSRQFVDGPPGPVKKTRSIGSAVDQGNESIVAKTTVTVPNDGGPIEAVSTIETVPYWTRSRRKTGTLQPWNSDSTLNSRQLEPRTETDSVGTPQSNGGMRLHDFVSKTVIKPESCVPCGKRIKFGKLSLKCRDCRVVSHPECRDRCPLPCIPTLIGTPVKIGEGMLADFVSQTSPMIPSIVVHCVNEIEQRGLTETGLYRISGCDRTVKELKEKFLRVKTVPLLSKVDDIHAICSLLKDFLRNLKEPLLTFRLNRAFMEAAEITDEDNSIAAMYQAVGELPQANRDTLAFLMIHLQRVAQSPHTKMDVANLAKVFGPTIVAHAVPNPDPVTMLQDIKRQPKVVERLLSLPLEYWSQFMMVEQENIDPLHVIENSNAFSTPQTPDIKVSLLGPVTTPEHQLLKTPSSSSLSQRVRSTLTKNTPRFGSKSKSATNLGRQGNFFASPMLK

Leucine aminopeptidase = target: T3, Leucine aminopeptidase (Plasmodium falciparum 3D7, UniProt Q8IL11); test: P. falciparum M17LAP inhibitors, primary screen, biochemical, fluorogenic H-Leu-NHMec substrate, 1536-well (AID 1619); format: functional
T3 sequence (Q8IL11 whole entry): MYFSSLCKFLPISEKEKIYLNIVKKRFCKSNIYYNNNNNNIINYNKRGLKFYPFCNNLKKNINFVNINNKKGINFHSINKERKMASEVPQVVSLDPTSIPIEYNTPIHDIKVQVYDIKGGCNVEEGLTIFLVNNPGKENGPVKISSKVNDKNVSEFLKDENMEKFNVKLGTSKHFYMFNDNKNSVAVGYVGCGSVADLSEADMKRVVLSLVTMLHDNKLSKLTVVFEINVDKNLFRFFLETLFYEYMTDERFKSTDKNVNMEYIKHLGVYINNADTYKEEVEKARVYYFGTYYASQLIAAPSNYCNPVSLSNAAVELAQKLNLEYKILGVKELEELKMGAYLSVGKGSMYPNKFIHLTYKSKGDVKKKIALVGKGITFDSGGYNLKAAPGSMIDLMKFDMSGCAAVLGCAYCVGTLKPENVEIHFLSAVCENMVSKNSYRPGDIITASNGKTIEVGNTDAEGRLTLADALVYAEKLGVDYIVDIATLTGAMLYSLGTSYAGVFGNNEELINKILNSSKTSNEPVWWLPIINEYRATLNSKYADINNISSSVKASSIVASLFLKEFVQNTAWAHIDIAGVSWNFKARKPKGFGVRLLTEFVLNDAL

H4 = test: Luminescence Cell-Based Dose Response HTS to Identify Activators of 5'UTR Stem-Loop Driven Prion Protein mRNA Translation in H4 Neuroglioblastoma Cells. [Related pubchem assays: 1829 (Project Summary), 1814 (Primary HTS)]; format: functional; conditions: Homo sapiens
[8] = Luminescence Cell-Based Dose Confirmation HTS to Identify Activators of 5'UTR Stem-Loop Driven Alpha-Synuclein mRNA Translation in H4 Neuroglioblastoma Cells. [Related pubchem assays: 1829 (Project Summary), 1814 (Primary HTS)]; format: functional
[9] = Luminescence Cell-Based Dose Response HTS to Identify Activators of Luciferase Translation or Activity in H4 […] Cells. [Related pubchem assays: 1829 (Project Summary), 1814 (Primary HTS)]; format: functional
[10] = target: T4, Heat shock factor protein 1 (Mus musculus, UniProt P38532); test: enhancement of HSF1-driven luciferase signal – cell-based, NIH3T3, luminescence, dose retest, confirmation (AID 435004); format: functional;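 also: stress induced by proteasome inhibitor MG132 added 30 min after compound; luciferase reporter driven by HSF1 response element in NIH3T3 cells; actives raise luminescence as potentiators of the MG132 stress response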
T4 sequence (P38532 whole entry): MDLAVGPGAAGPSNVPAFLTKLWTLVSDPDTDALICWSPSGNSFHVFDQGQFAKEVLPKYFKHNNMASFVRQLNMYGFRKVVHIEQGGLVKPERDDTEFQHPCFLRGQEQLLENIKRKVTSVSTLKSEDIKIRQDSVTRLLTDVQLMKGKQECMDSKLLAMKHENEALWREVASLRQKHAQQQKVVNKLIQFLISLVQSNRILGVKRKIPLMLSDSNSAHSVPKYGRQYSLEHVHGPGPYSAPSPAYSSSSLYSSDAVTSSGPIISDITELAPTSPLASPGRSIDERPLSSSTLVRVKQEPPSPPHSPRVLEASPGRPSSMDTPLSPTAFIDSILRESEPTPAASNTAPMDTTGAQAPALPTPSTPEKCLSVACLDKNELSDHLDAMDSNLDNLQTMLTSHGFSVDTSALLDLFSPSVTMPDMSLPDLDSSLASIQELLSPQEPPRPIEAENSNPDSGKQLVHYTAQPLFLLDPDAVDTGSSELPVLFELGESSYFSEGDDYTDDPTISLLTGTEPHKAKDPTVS

Sequence of Protein Wnt-3a (P27467 whole entry): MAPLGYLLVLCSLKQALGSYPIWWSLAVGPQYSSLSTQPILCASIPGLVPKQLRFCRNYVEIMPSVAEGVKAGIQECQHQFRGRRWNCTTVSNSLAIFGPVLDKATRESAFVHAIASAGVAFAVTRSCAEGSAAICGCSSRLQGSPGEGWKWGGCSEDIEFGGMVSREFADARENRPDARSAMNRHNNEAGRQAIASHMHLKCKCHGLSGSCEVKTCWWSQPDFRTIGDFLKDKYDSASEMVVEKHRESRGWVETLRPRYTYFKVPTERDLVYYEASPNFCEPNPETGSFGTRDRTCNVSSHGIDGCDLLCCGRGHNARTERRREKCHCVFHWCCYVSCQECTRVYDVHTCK
Sequence of Eukaryotic translation initiation factor 4E (P63073 whole entry): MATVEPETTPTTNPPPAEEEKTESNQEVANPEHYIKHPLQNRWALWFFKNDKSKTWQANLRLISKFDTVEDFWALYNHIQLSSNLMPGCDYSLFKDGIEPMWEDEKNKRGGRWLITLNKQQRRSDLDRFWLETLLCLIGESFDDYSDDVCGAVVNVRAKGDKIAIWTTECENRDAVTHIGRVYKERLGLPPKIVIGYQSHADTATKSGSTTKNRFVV

**Q.** With `CCC(=O)N1NC(=C2C(=O)N(C)C(=O)N(C)C2=O)CC1c1ccccc1` (stereo not drawn) as the compound, how does the EC50 [1] read?
**A.** 4.93 µM (active)

**Q.** And the IC50 (Aminopeptidase N)?
**A.** 41.9 µM (active)

**Q.** What about the EC50 (Streptococcus) of the same compound?
**A.** 8.9 µM (active)

**Q.** Which AC50 [2] does the source give for `CC1CN(S(=O)(=O)c2ccc(C(=O)Nc3nc(-c4cc5ccccc5o4)cs3)cc2)CC(C)O1` (stereo not drawn) here?
**A.** 1.02 µM (active)

**Q.** And the AC50 [3]?
**A.** 2.04 µM (active)

**Q.** And the AC50 [4]?
**A.** < 0.26 µM (active)

**Q.** And the IC50 [5]?
**A.** > 80 µM (inactive)

**Q.** What about the IC50 (Protein Wnt-3a) of the same compound?
**A.** 1.28 µM (active)

**Q.** For `Cc1cccc(Nc2nnc(S)s2)c1C`, which IC50 [6] is on record?
**A.** > 64 µM (inactive)

**Q.** What about the IC50 [7] of the same compound?
**A.** 67.2 µM (active)

**Q.** And the IC50 (Leucine aminopeptidase)?
**A.** 9.62 µM (active)

**Q.** What does the source list for `N#Cc1nc(/C=C/c2ccccc2)oc1NCCCN1CCOCC1`?
**A.** EC50 (H4): 38 µM (active); IC50 (Aminopeptidase N): 39.2 µM (active); EC50 [8]: 22.1 µM (active); EC50 [9]: 7.23 µM (active)

**Q.** Which IC50 [5] does the source give for `Cc1c(CCC(=O)N2CCC(C(=O)O)(c3ccccc3)CC2)c(=O)oc2cc3oc4c(c3cc12)CCCC4` here?
**A.** > 80 µM (inactive)

**Q.** Which EC50 [10] does the source give for `Cc1ccc(O)c(NC(=O)COc2cc(C)ccc2C)c1` here?
**A.** > 260 µM (inactive)

**Q.** What about the IC50 [5] of the same compound?
**A.** > 80 µM (inactive)
